According to BindingDB's records for patent US20250066349 (Prothena Biosciences, 2025):

biological target: Dual specificity tyrosine-phosphorylation-regulated kinase 1A (Homo sapiens, UniProt Q13627); assay: DYRK1A Inhibition Assay
Method: 1. Add 5 μL enzyme & substrate mixture to each well in Column 2-23 and A24-H24 wells of the 384-well assay plate;2. Add 5 μL 0% Phosphorylation control to A1-H1 and I24-P24 wells of the assay plate;3. Add 5 μL 100% Phosphorylation control to I1-P1 wells of the assay plate;4. Spin the assay plate (1000 rpm, 1 minute @23° C.);5. Incubate enzyme with compounds for 15 minutes at 23° C.;6. Add 5 μL ATP solution to each well of the assay plate;7. Spin the plate (1000 rpm, 1 minute @23° C.);8. Incubate the assay plate for 90 minutes at 23° C.;9. Add 10 μL Development reagent A to each well of the assay plate;10. Centrifuge the plate at 1000 rpm about 15 seconds and seal a film over assay plate. Incubate the assay plate for 30 minutes at 23° C.11. Read assay plates on Envision (see Tables A-D).

IC50 [nM]	Structure (SMILES)
< 10	Cn1cc(-c2ccc3cnc4[nH]cc(C5CCC5)c4c3c2)cn1 [US20250066349, Compound I.1]
> 1000	COC(=O)c1ccc2c(cnc3[nH]cc(-c4ccc(F)cc4)c32)c1 [US20250066349, Compound I.4]
< 10	Cc1ncc(-c2ccc3cnc4[nH]cc(C5CCCCC5)c4c3c2)s1 [US20250066349, Compound I.6]
< 10	COC1CC=C(c2n[nH]c3ncc4ccc(-c5cnn(C)c5)cc4c23)CC1 (configuration not stated) [US20250066349, Compound I.8]
< 10	COC1CCC(c2c[nH]c3ncc4ccc(-c5cnn(C)c5)cc4c23)CC1 (configuration not stated) [US20250066349, Compound I.13]
< 10	Cn1cc(-c2ccc3cnc4[nH]cc(C5CCC(O)CC5)c4c3c2)cn1 (configuration not stated) [US20250066349, Compound I.14]
< 10	Cn1cc(-c2ccc3cnc4[nH]cc(C5CC(O)C5)c4c3c2)cn1 (configuration not stated) [US20250066349, Compound I.18]
< 10	COC1CC(c2c[nH]c3ncc4ccc(-c5cnn(C)c5)cc4c23)C1 (configuration not stated) [US20250066349, Compound I.23]
< 10	Cn1cc(-c2ccc3cnc4[nH]cc(C5CCC(C(=O)O)CC5)c4c3c2)cn1 (configuration not stated) [US20250066349, Compound I.24]
< 10	Cc1c(C2CCOCC2)[nH]c2ncc3ccc(-c4cnn(C)c4)cc3c12 [US20250066349, Compound I.51]
< 10	Cn1cc(-c2ccc3c(-c4ccc5cnn(C)c5c4)cnn3c2)ccc1=O [US20250066349, Compound II.1]
< 10	Cn1cc(-c2ccc3c(-c4ccc5cnsc5c4)cnn3c2)ccc1=O [US20250066349, Compound II.2]
< 50	CN1CCC(C(=O)Nc2ncc(-c3ccc4c(c3)COC4=O)s2)CC1 [US20250066349, Compound III.2]
< 50	CN1CCC(C(=O)Nc2ncc(-c3ccc4oncc4c3)s2)CC1 [US20250066349, Compound III.4]
< 500	CC(=O)N1CCc2c(cnc3[nH]cc(C4CCC4)c23)C1 [US20250066349, Compound IV.1]
< 500	CC(=O)N1CCc2c(cnc3[nH]cc(-c4ccc5c(c4)OCO5)c23)C1 [US20250066349, Compound IV.6]
< 500	Cn1ncc2c3ccc(C#N)cc3ncc21 [US20250066349, Compound IV.14]
< 500	CN(C)CCOc1ccc2c(c1)[nH]c(=O)c1cc(-c3ccncc3)cn12 [US20250066349, Compound IV.18]
> 5000	N#Cc1ccc2c(c1)ncc1c(Oc3cccc(Cl)c3)cncc12 [US20250066349, Compound IV.21]
> 5000	CN1CCc2c([nH]c(=O)c3cc(C4CCOCC4)ccc23)C1 [US20250066349, Compound IV.22]
> 5000	CN1CCc2c([nH]c(=O)c3cc(C4=CCOCC4)ccc23)C1 [US20250066349, Compound IV.23]
> 5000	COc1ccc(-c2ccc3c4c([nH]c(=O)c3c2)CN(C)CC4)cc1OC [US20250066349, Compound IV.24]
